# Experimental data published in PubChem BioAssay (NCI).
#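 Values below derive from 48-hour exposures of cells grown in 96-well plates, with endpoints linearly interpolated between the two concentrations bracketing the appropriate inhibition level. TGI marks complete inhibition of growth.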
# Legend:
# Assay in all cases: NCI anticancer screen, dose series, 48 h
# [1] = test system: 786-0 renal
# [2] = test system: A549 NSCLC
# [3] = test system: ACHN renal
# [4] = test system: CAKI-1 renal
# [5] = test system: CCRF-CEM leukemia
# [6] = test system: COLO 205 colon
# [7] = test system: DLD-1 colon
# [8] = test system: DMS 114 small cell lung
# [9] = test system: EKVX NSCLC
# [10] = test system: HCC-2998 colon
# [11] = test system: HCT-116 colon
# [12] = test system: HCT-15 colon
# [13] = test system: HL-60(TB) leukemia
# [14] = test system: HOP-18 NSCLC
# [15] = test system: HOP-62 NSCLC
# [16] = test system: HOP-92 NSCLC
# [17] = test system: HT29 colon
# [18] = test system: IGROV1 ovarian
# [19] = test system: K-562 leukemia
# [20] = test system: KM12 colon
# [21] = test system: KM20L2 colon
# [22] = test system: LOX IMVI melanoma
# [23] = test system: LXFL 529 NSCLC
# [24] = test system: M14 melanoma
# [25] = test system: M19-MEL melanoma
# [26] = test system: MALME-3M melanoma
# [27] = test system: MOLT-4 leukemia
# [28] = test system: NCI-H226 lung
# [29] = test system: NCI-H23 lung
# [30] = test system: NCI-H460 lung
# [31] = test system: NCI-H522 lung
# [32] = test system: OVCAR-3 ovarian
# [33] = test system: OVCAR-4 ovarian
# [34] = test system: OVCAR-5 ovarian
# [35] = test system: OVCAR-8 ovarian
# [36] = test system: RXF 393 renal
# [37] = test system: RXF-631 renal
# [38] = test system: SF-268 CNS
# [39] = test system: SF-295 CNS
# [40] = test system: SF-539 CNS
# [41] = test system: SK-MEL-2 melanoma
# [42] = test system: SK-MEL-28 melanoma
# [43] = test system: SK-OV-3 ovarian
# [44] = test system: SN12C renal
# [45] = test system: SNB-19 CNS
# [46] = test system: SNB-75 CNS
# [47] = test system: SNB-78 CNS
# [48] = test system: SR leukemia
# [49] = test system: SW-620 colon
# [50] = test system: TK-10 renal
# [51] = test system: U251 CNS
# [52] = test system: UACC-257 melanoma
# [53] = test system: UACC-62 melanoma
# [54] = test system: UO-31 renal
# [55] = test system: XF 498 CNS
# [56] = test system: A498 renal
# [57] = test system: DMS 273 small cell lung
# [58] = test system: RPMI-8226 leukemia
# [59] = test system: SK-MEL-5 melanoma
structure (smiles),measurement,setting,value
C=CC1=C(C)C(/C=c2\[nH]/c(=C/c3[nH]c(CC4NC(=O)C(C)/C4=C\C)c(C)c3CCC(=O)O)c(CC(=O)O)c2C)=NC1=O (centres undefined),TGI,[1],> 100 µM
same,TGI,[2],> 100 µM
same,TGI,[3],> 100 µM
same,TGI,[4],> 100 µM
same,TGI,[5],> 100 µM
same,TGI,[6],> 100 µM
same,TGI,[7],> 100 µM
same,TGI,[8],> 100 µM
same,TGI,[9],> 100 µM
same,TGI,[10],> 100 µM
same,TGI,[11],> 100 µM
same,TGI,[12],> 100 µM
same,TGI,[13],> 100 µM
same,TGI,[14],> 100 µM
same,TGI,[15],> 100 µM
same,TGI,[16],> 100 µM
same,TGI,[17],> 100 µM
same,TGI,[18],> 100 µM
same,TGI,[19],> 100 µM
same,TGI,[20],> 100 µM
same,TGI,[21],> 100 µM
same,TGI,[22],> 100 µM
same,TGI,[23],> 100 µM
same,TGI,[24],> 100 µM
same,TGI,[25],> 100 µM
same,TGI,[26],> 100 µM
same,TGI,[27],> 100 µM
same,TGI,[28],> 100 µM
same,TGI,[29],> 100 µM
same,TGI,[30],> 100 µM
same,TGI,[31],> 100 µM
same,TGI,[32],> 100 µM
same,TGI,[33],> 100 µM
same,TGI,[34],> 100 µM
same,TGI,[35],> 100 µM
same,TGI,[36],> 100 µM
same,TGI,[37],> 100 µM
same,TGI,[38],> 100 µM
same,TGI,[39],> 100 µM
same,TGI,[40],> 100 µM
same,TGI,[41],> 100 µM
same,TGI,[42],> 100 µM
same,TGI,[43],> 100 µM
same,TGI,[44],> 100 µM
same,TGI,[45],> 100 µM
same,TGI,[46],> 100 µM
same,TGI,[47],> 100 µM
same,TGI,[48],> 100 µM
same,TGI,[49],> 100 µM
same,TGI,[50],> 100 µM
same,TGI,[51],> 100 µM
same,TGI,[52],> 100 µM
same,TGI,[53],> 100 µM
same,TGI,[54],> 100 µM
same,TGI,[55],> 100 µM
OC1OCC(COc2cc(Cl)c(Cl)cc2Cl)OC1O (centres undefined),TGI,[1],> 100 µM
same,TGI,[56],> 100 µM
same,TGI,[2],> 100 µM
same,TGI,[3],> 100 µM
same,TGI,[4],> 100 µM
same,TGI,[5],89.6 µM
same,TGI,[6],> 100 µM
same,TGI,[7],> 100 µM
same,TGI,[8],88.3 µM
same,TGI,[57],> 100 µM
same,TGI,[9],81.9 µM
same,TGI,[10],> 100 µM
same,TGI,[11],42.1 µM
same,TGI,[12],44.6 µM
same,TGI,[13],90.9 µM
same,TGI,[14],90.8 µM
same,TGI,[15],> 100 µM
same,TGI,[16],94.3 µM
same,TGI,[17],> 100 µM
same,TGI,[18],> 100 µM
same,TGI,[19],> 100 µM
same,TGI,[20],> 100 µM
same,TGI,[21],> 100 µM
same,TGI,[23],> 100 µM
same,TGI,[24],> 100 µM
same,TGI,[25],> 100 µM
same,TGI,[26],> 100 µM
same,TGI,[27],> 100 µM
same,TGI,[28],> 100 µM
same,TGI,[29],> 100 µM
same,TGI,[30],> 100 µM
same,TGI,[31],70.8 µM
same,TGI,[32],69.5 µM
same,TGI,[33],> 100 µM
same,TGI,[34],> 100 µM
same,TGI,[35],> 100 µM
same,TGI,[58],77.9 µM
same,TGI,[37],> 100 µM
same,TGI,[38],> 100 µM
same,TGI,[39],> 100 µM
same,TGI,[40],> 100 µM
same,TGI,[42],> 100 µM
same,TGI,[59],> 100 µM
same,TGI,[43],> 100 µM
same,TGI,[44],> 100 µM
same,TGI,[45],> 100 µM
same,TGI,[46],> 100 µM
same,TGI,[47],79.7 µM
same,TGI,[49],47.7 µM
same,TGI,[50],> 100 µM
same,TGI,[51],> 100 µM
same,TGI,[52],> 100 µM
same,TGI,[53],> 100 µM
same,TGI,[54],> 100 µM
